Numbers after ± are expanded uncertainties.
Details: 367.32 K, Liquid, Coaxial cylinder method

CCC [propane]
Details | thermal conductivity [W/m/K]
4066 kPa | 0.1808 ± 0.013
4067 kPa | 0.1761 ± 0.013
4068 kPa | 0.1712 ± 0.012
4069 kPa | 0.1669 ± 0.012
4070 kPa | 0.1627 ± 0.012
4071 kPa | 0.1586 ± 0.011
4072 kPa | 0.1546 ± 0.012
4073 kPa | 0.1511 ± 0.012
4074 kPa | 0.1475 ± 0.012
4075 kPa | 0.1439 ± 0.011
4076 kPa | 0.1405 ± 0.011
4077 kPa | 0.1378 ± 0.011
4078 kPa | 0.1345 ± 0.011
4079 kPa | 0.1317 ± 0.011
4080 kPa | 0.129 ± 0.011
4081 kPa | 0.127 ± 0.011
4082 kPa | 0.1249 ± 0.011
4083 kPa | 0.123 ± 0.01
4084 kPa | 0.121 ± 0.01
4085 kPa | 0.1189 ± 0.01
4086 kPa | 0.1166 ± 0.01
4087 kPa | 0.115 ± 0.0099
4088 kPa | 0.1136 ± 0.0097
4089 kPa | 0.1118 ± 0.0096
4090 kPa | 0.1105 ± 0.0096
4091 kPa | 0.109 ± 0.0095
4092 kPa | 0.1085 ± 0.0095
4093 kPa | 0.1068 ± 0.0093
4094 kPa | 0.1051 ± 0.0092
4095 kPa | 0.1042 ± 0.0092
4096 kPa | 0.1034 ± 0.0092
4097 kPa | 0.1027 ± 0.0089
4098 kPa | 0.1021 ± 0.0086
4099 kPa | 0.1016 ± 0.0085
4100 kPa | 0.1007 ± 0.0084
4101 kPa | 0.09965 ± 0.0083
4102 kPa | 0.09856 ± 0.0082
4103 kPa | 0.09755 ± 0.008
4104 kPa | 0.09655 ± 0.008
4105 kPa | 0.09562 ± 0.0079
4106 kPa | 0.0947 ± 0.0078
4107 kPa | 0.0938 ± 0.0077
4108 kPa | 0.09296 ± 0.0076
4109 kPa | 0.09214 ± 0.0075
4110 kPa | 0.09124 ± 0.0075
4112 kPa | 0.08967 ± 0.0074
4114 kPa | 0.0892 ± 0.0073
4116 kPa | 0.08674 ± 0.0071
4118 kPa | 0.08545 ± 0.007
4120 kPa | 0.08412 ± 0.0069
4122 kPa | 0.08294 ± 0.0069
4124 kPa | 0.08176 ± 0.0068
4126 kPa | 0.08067 ± 0.0067
4128 kPa | 0.07964 ± 0.0066
4130 kPa | 0.07867 ± 0.0066
4132 kPa | 0.07775 ± 0.0066
4134 kPa | 0.07688 ± 0.0066
4136 kPa | 0.07609 ± 0.0065
4138 kPa | 0.07523 ± 0.0064
4140 kPa | 0.07455 ± 0.0064
4142 kPa | 0.0738 ± 0.0064
4144 kPa | 0.07315 ± 0.0064
4146 kPa | 0.0725 ± 0.006
4148 kPa | 0.07187 ± 0.0055
4150 kPa | 0.07132 ± 0.0053
4152 kPa | 0.07076 ± 0.0051
4154 kPa | 0.07028 ± 0.005
4156 kPa | 0.06982 ± 0.0049
4160 kPa | 0.06894 ± 0.0047
4162 kPa | 0.06852 ± 0.0046
4164 kPa | 0.06814 ± 0.0046
4166 kPa | 0.06773 ± 0.0045
4168 kPa | 0.0674 ± 0.0045
4170 kPa | 0.06707 ± 0.0045
4172 kPa | 0.06674 ± 0.0044
4174 kPa | 0.06646 ± 0.0044
4176 kPa | 0.0662 ± 0.0044
4178 kPa | 0.06599 ± 0.0043
4180 kPa | 0.06574 ± 0.0043
4182 kPa | 0.06551 ± 0.0043
4184 kPa | 0.0653 ± 0.0043
4186 kPa | 0.06509 ± 0.0043
4188 kPa | 0.0649 ± 0.0042
4190 kPa | 0.06474 ± 0.0042
4192 kPa | 0.0647 ± 0.0042
4194 kPa | 0.06462 ± 0.0042
4196 kPa | 0.06458 ± 0.0042
4198 kPa | 0.06458 ± 0.0042
4200 kPa | 0.06456 ± 0.0042
4202 kPa | 0.06454 ± 0.0042
4204 kPa | 0.06452 ± 0.0042
4206 kPa | 0.0645 ± 0.0042
4208 kPa | 0.06448 ± 0.0042
4210 kPa | 0.06446 ± 0.0042
4212 kPa | 0.06444 ± 0.0042
4214 kPa | 0.06445 ± 0.0042
4216 kPa | 0.06443 ± 0.0042
4218 kPa | 0.06443 ± 0.0042
4220 kPa | 0.06439 ± 0.0042
4222 kPa | 0.06437 ± 0.0042
4224 kPa | 0.06435 ± 0.0042
4226 kPa | 0.06433 ± 0.0042
4228 kPa | 0.06435 ± 0.0042
4230 kPa | 0.06433 ± 0.0042
4232 kPa | 0.06431 ± 0.0042
4234 kPa | 0.06432 ± 0.0042
4236 kPa | 0.06432 ± 0.0042
4238 kPa | 0.0643 ± 0.0042
4240 kPa | 0.06428 ± 0.0042
4250 kPa | 0.06424 ± 0.0042

— the NIST ThermoML archive (doi:10.1016/j.fluid.2017.06.019)
